Assay results taken from patent US10550143B2, “C,O-spiro aryl glycoside compounds, preparation therefor and use thereof” (SHANGHAI INSTITUTE OF MATERIA MEDICA, CHINESE ACADEMY OF …, priority 2015, dated 2020).

What was measured:
hSGLT1 = molecular target: T1, hSGLT1 (Homo sapiens, UniProt P13866); experiment: In vitro SGLT1 inhibition (hSGLT1 IC50 test); type: cell-based; conditions: read-out: IC50 ± SD SGLT1
T1 sequence (P13866 1-664): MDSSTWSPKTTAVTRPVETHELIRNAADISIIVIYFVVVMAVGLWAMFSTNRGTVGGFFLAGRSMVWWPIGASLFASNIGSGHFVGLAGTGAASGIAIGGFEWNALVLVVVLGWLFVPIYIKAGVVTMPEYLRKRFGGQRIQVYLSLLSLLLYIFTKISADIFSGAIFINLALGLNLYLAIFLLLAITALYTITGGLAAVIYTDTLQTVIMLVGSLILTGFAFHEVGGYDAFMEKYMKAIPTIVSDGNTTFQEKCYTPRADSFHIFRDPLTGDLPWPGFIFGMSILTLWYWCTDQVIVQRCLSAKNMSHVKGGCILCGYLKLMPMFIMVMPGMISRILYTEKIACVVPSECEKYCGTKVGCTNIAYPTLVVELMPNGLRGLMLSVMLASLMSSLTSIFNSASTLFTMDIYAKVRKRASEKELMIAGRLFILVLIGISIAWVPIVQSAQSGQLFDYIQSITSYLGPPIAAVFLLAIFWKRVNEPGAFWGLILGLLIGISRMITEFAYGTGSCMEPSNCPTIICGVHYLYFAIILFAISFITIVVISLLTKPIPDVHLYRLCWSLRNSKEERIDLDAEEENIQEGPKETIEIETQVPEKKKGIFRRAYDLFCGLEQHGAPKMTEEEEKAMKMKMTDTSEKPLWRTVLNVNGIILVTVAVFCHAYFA

C57BL/6J mice = experiment: Acute administration of A28 at multiple doses, oral glucose tolerance of C57BL/6J mice; type: in vivo, mouse; conditions: for AUC0-2 h / Average hypoglycemic rate % (0-2 h) / Blood glucose level 15 min / Blood glucose level 30 min / Blood glucose level 60 min / Blood glucose level 90 min / Blood glucose level 120 min / Blood glucose level 0: C57BL/6J mice OGTT; for Blood glucose level 0: before sugar
Experimental: (1) Experimental Methods: 56 C57BL/6J mice were selected and starved for 6 h, took water freely, then randomly divided into 7 groups according to body weight and random blood glucose, 8 rats in each group. […] Average hypoglycemic rate %=(AUC0-120 min of solvent control group−AUC0-120 min of administration group)/(AUC0-120 min of solvent control group−AUC0-120 min of blank control group)*100%

SD rats = experiment: Acute administration of A28 at multiple doses, urinary glucose of SD rats; type: in vivo, rat; conditions: within 24 h
Experimental: (1) 72 normal male SD rats were selected and randomly divided into 9 groups according to body weight and blood glucose, 8 in each group. […] After oral gavage, the rats were placed in rats metabolic cages, and urine was collected after 24 h, and the urine volume was recorded, then preserved under −20° C. Rats take food and water freely during the experimental period.
(2) Index Determination: Glucose levels in urine are measured by the glucose assay kit.

db/db mice [1] = experiment: Chronic administration, glucose-stimulated insulin release in db/db mice; type: in vivo, mouse; conditions: for Insulin AUC / Insulin (ng/ml) 0 min / Insulin (ng/ml) 15 min / Insulin (ng/ml) 30 min / Insulin (ng/ml) 60 min / Insulin (ng/ml) pre: glucose-stimulated insulin release, chronic administration
Experimental: Oral gavage administrated, daily dose volume was 10 mL/kg, administered once daily. Administration time was 9: 00-10:00 daily, and the administration period was 5 weeks.
The fourth week after administration, the mice were starved for 6 hours after morning administration and were orally administrated with glucose (1.5 g/kg), and blood was collected from the tail (10 μL EDTA+20 μL tail blood). Centrifuged and the supernatant was taken, stored at −20° C. for insulin test.

db/db mice [2] = experiment: Acute administration at multiple doses, random blood glucose in db/db mice; type: in vivo, mouse; conditions: for Blood glucose level 0 h: before administration
Experimental: (1) 127 db/db mice (half male and half female) entered the animal laboratory of the institute at 7 weeks of age and were grouped at 10 weeks of age. Random blood glucose and random body weight of all db/db mice were determined at 9:00 am, and then fasted for 6 hours (free drinking). Fasting blood glucose and fasting body weight were determined, and blood was collected (10 μl EDTA+20 μl tail blood, centrifugated to collect supernatant) to determine the insulin content. […] The db/db mice were once orally administered at a dose of 10 mL/kg. Blood glucose levels were measured before administration, and at 1 h, 2 h, 3 h, 4 h, 6 h after administration, and the administration times and body weights were recorded. Mice took food and water freely during the experiment.
Average hypoglycemic rate %=(model control group−administration group)/(model control group−blank control group)*100%

CCc1ccc(Cc2cc3c(cc2Cl)CO[C@]32O[C@H](C)[C@@H](O)[C@H](O)[C@H]2O)s1 [Example A28, (1S,3′R,4′S,5′S,6′R)-6′-methyl-6-((5-ethylthienyl)-2-methyl)-5-chloro-3′,4′,5′,6′-tetrahydro-3H-spiro[isobenzofuran-1,2′-pyran]-3′,4′,5′-triol]
IC50 (hSGLT1): 2060 ± 210 nM | AUC0-2 h (C57BL/6J mice; oral 0.3 mg/kg): 21.6 ± 1.5 mmol·h/L | Average hypoglycemic rate % (0-2 h) (C57BL/6J mice; oral 0.3 mg/kg): 2.0% | Blood glucose level 15 min (C57BL/6J mice; oral 0.3 mg/kg): 14.2 ± 2.1 mmol/L | Blood glucose level 30 min (C57BL/6J mice; oral 0.3 mg/kg): 13.0 ± 1.7 mmol/L | Blood glucose level 60 min (C57BL/6J mice; oral 0.3 mg/kg): 11.2 ± 0.8 mmol/L | Blood glucose level 90 min (C57BL/6J mice; oral 0.3 mg/kg): 9.1 ± 1.0 mmol/L | Blood glucose level 120 min (C57BL/6J mice; oral 0.3 mg/kg): 8.3 ± 1.0 mmol/L | Blood glucose level 0 (C57BL/6J mice; oral 0.3 mg/kg): 7.5 ± 0.4 mmol/L | AUC0-2 h (C57BL/6J mice; oral 1 mg/kg): 19.8 ± 1.0 mmol·h/L | Average hypoglycemic rate % (0-2 h) (C57BL/6J mice; oral 1 mg/kg): 10.0% | Blood glucose level 15 min (C57BL/6J mice; oral 1 mg/kg): 12.5 ± 1.6 mmol/L | Blood glucose level 30 min (C57BL/6J mice; oral 1 mg/kg): 12.0 ± 0.8 mmol/L | Blood glucose level 60 min (C57BL/6J mice; oral 1 mg/kg): 9.9 ± 0.9 mmol/L | Blood glucose level 90 min (C57BL/6J mice; oral 1 mg/kg): 8.7 ± 0.7 mmol/L | Blood glucose level 120 min (C57BL/6J mice; oral 1 mg/kg): 7.9 ± 0.7 mmol/L | Blood glucose level 0 (C57BL/6J mice; oral 1 mg/kg): 7.1 ± 0.6 mmol/L | AUC0-2 h (C57BL/6J mice; oral 3 mg/kg): 18.5 ± 0.6 mmol·h/L | Average hypoglycemic rate % (0-2 h) (C57BL/6J mice; oral 3 mg/kg): 16.2% | Blood glucose level 15 min (C57BL/6J mice; oral 3 mg/kg): 10.4 ± 1.0 mmol/L | Blood glucose level 30 min (C57BL/6J mice; oral 3 mg/kg): 11.3 ± 1.1 mmol/L | Blood glucose level 60 min (C57BL/6J mice; oral 3 mg/kg): 9.5 ± 0.7 mmol/L | Blood glucose level 90 min (C57BL/6J mice; oral 3 mg/kg): 8.4 ± 0.7 mmol/L | Blood glucose level 120 min (C57BL/6J mice; oral 3 mg/kg): 7.4 ± 0.6 mmol/L | Blood glucose level 0 (C57BL/6J mice; oral 3 mg/kg): 6.4 ± 0.7 mmol/L | effective dose, reduction of blood glucose AUC within 2 h after sugar (C57BL/6J mice; C57BL/6J mice, once administrated): 1 mg/kg | Total sugar excretion (SD rats; oral 0.3 mg/kg): 10.55 ± 10.05 mg/100 g | Urine concentration (SD rats; oral 0.3 mg/kg): 8.70 ± 1.98 mmol/L | Urine volume (SD rats; oral 0.3 mg/kg): 16.25 ± 1.50 mL | Total sugar excretion (SD rats; oral 1 mg/kg): 149.08 ± 0.00 mg/100 g | Urine concentration (SD rats; oral 1 mg/kg): 105.56 ± 0.00 mmol/L | Urine volume (SD rats; oral 1 mg/kg): 19.25 ± 0.00 mL | Total sugar excretion (SD rats; oral 3 mg/kg): 441.27 ± 50.75 mg/100 g | Urine concentration (SD rats; oral 3 mg/kg): 257.69 ± 32.96 mmol/L | Urine volume (SD rats; oral 3 mg/kg): 25.00 ± 2.06 mL | Total sugar excretion (SD rats; oral 10 mg/kg): 1028.20 ± 83.93 mg/100 g | Urine concentration (SD rats; oral 10 mg/kg): 359.48 ± 29.43 mmol/L | Urine volume (SD rats; oral 10 mg/kg): 39.75 ± 1.57 mL | urine glucose excretion (SD rats; single oral 0.3, 1, 3 and 10 mg/kg): significantly promoted in a dose-dependent manner | glucose-stimulated insulin release (db/db mice [1]; four weeks chronic administration, 0.3 mg/kg and 1 mg/kg): significantly improved glucose-stimulated insulin release in db/db mice in a dose-dependent manner | Insulin AUC (db/db mice [1]; dose 0.3 mg/kg): 43.85 ± 5.69 | Insulin (ng/ml) 0 min (db/db mice [1]; dose 0.3 mg/kg): 21.58 ± 2.48 ng/mL | Insulin (ng/ml) 15 min (db/db mice [1]; dose 0.3 mg/kg): 51.67 ± 7.86 ng/mL | Insulin (ng/ml) 30 min (db/db mice [1]; dose 0.3 mg/kg): 46.22 ± 8.10 ng/mL | Insulin (ng/ml) 60 min (db/db mice [1]; dose 0.3 mg/kg): 43.61 ± 4.85 ng/mL | Insulin (ng/ml) pre (db/db mice [1]; dose 0.3 mg/kg): 7.68 ± 0.79 ng/mL | Insulin AUC (db/db mice [1]; dose 1 mg/kg): 35.92 ± 5.00 | Insulin (ng/ml) 0 min (db/db mice [1]; dose 1 mg/kg): 17.47 ± 2.20 ng/mL | Insulin (ng/ml) 15 min (db/db mice [1]; dose 1 mg/kg): 41.94 ± 8.42 ng/mL | Insulin (ng/ml) 30 min (db/db mice [1]; dose 1 mg/kg): 40.07 ± 7.01 ng/mL | Insulin (ng/ml) 60 min (db/db mice [1]; dose 1 mg/kg): 32.89 ± 3.69 ng/mL | Insulin (ng/ml) pre (db/db mice [1]; dose 1 mg/kg): 7.86 ± 0.94 ng/mL | Insulin AUC (db/db mice [1]; dose 3 mg/kg): 32.49 ± 5.92 | Insulin (ng/ml) 0 min (db/db mice [1]; dose 3 mg/kg): 17.57 ± 4.54 ng/mL | Insulin (ng/ml) 15 min (db/db mice [1]; dose 3 mg/kg): 38.42 ± 8.58 ng/mL | Insulin (ng/ml) 30 min (db/db mice [1]; dose 3 mg/kg): 36.06 ± 8.77 ng/mL | Insulin (ng/ml) 60 min (db/db mice [1]; dose 3 mg/kg): 28.68 ± 8.81 ng/mL | Insulin (ng/ml) pre (db/db mice [1]; dose 3 mg/kg): 7.92 ± 1.60 ng/mL | Insulin AUC (db/db mice [1]; dose 10 mg/kg): 17.20 ± 1.59 | Insulin (ng/ml) 0 min (db/db mice [1]; dose 10 mg/kg): 9.02 ± 0.59 ng/mL | Insulin (ng/ml) 15 min (db/db mice [1]; dose 10 mg/kg): 16.70 ± 2.42 ng/mL | Insulin (ng/ml) 30 min (db/db mice [1]; dose 10 mg/kg): 13.42 ± 1.94 ng/mL | Insulin (ng/ml) 60 min (db/db mice [1]; dose 10 mg/kg): 27.45 ± 4.43 ng/mL | Insulin (ng/ml) pre (db/db mice [1]; dose 10 mg/kg): 7.45 ± 1.00 ng/mL | effective dose, reduction of blood glucose levels (db/db mice [2]; single administration, within 6 h): 3 mg/kg | AUC0-6 h (db/db mice [2]; single oral 0.3 mg/kg): 103.7 ± 7.7 mmol·h/L | Blood glucose level 1 h (db/db mice [2]; single oral 0.3 mg/kg): 19.4 ± 1.2 mmol/L | Blood glucose level 2 h (db/db mice [2]; single oral 0.3 mg/kg): 18.0 ± 0.9 mmol/L | Blood glucose level 3 h (db/db mice [2]; single oral 0.3 mg/kg): 17.2 ± 1.5 mmol/L | Blood glucose level 4 h (db/db mice [2]; single oral 0.3 mg/kg): 16.5 ± 1.5 mmol/L | Blood glucose level 6 h (db/db mice [2]; single oral 0.3 mg/kg): 15.4 ± 1.7 mmol/L | Blood glucose level 0 h (db/db mice [2]; single oral 0.3 mg/kg): 17.9 ± 1.5 mmol/L | AUC0-6 h (db/db mice [2]; single oral 1 mg/kg): 87.3 ± 4.8 mmol·h/L | Blood glucose level 1 h (db/db mice [2]; single oral 1 mg/kg): 15.9 ± 0.7 mmol/L | Blood glucose level 2 h (db/db mice [2]; single oral 1 mg/kg): 13.7 ± 0.6 mmol/L | Blood glucose level 3 h (db/db mice [2]; single oral 1 mg/kg): 14.6 ± 0.9 mmol/L | Blood glucose level 4 h (db/db mice [2]; single oral 1 mg/kg): 14.9 ± 1.1 mmol/L | Blood glucose level 6 h (db/db mice [2]; single oral 1 mg/kg): 12.3 ± 0.9 mmol/L | Blood glucose level 0 h (db/db mice [2]; single oral 1 mg/kg): 16.8 ± 1.2 mmol/L | AUC0-6 h (db/db mice [2]; single oral 3 mg/kg): 62.7 ± 3.3 mmol·h/L | Blood glucose level 1 h (db/db mice [2]; single oral 3 mg/kg): 11.2 ± 1.2 mmol/L | Blood glucose level 2 h (db/db mice [2]; single oral 3 mg/kg): 9.1 ± 0.5 mmol/L | Blood glucose level 3 h (db/db mice [2]; single oral 3 mg/kg): 10.2 ± 0.7 mmol/L | Blood glucose level 4 h (db/db mice [2]; single oral 3 mg/kg): 8.7 ± 0.6 mmol/L | Blood glucose level 6 h (db/db mice [2]; single oral 3 mg/kg): 9.7 ± 0.8 mmol/L | Blood glucose level 0 h (db/db mice [2]; single oral 3 mg/kg): 18.7 ± 1.2 mmol/L | AUC0-6 h (db/db mice [2]; single oral 10 mg/kg): 47.2 ± 1.7 mmol·h/L | Blood glucose level 1 h (db/db mice [2]; single oral 10 mg/kg): 8.2 ± 0.4 mmol/L | Blood glucose level 2 h (db/db mice [2]; single oral 10 mg/kg): 6.0 ± 0.6 mmol/L | Blood glucose level 3 h (db/db mice [2]; single oral 10 mg/kg): 7.1 ± 0.5 mmol/L | Blood glucose level 4 h (db/db mice [2]; single oral 10 mg/kg): 7.2 ± 0.6 mmol/L | Blood glucose level 6 h (db/db mice [2]; single oral 10 mg/kg): 6.1 ± 0.4 mmol/L | Blood glucose level 0 h (db/db mice [2]; single oral 10 mg/kg): 18.3 ± 1.7 mmol/L
